Test: xn = mol fraction of the nth substance listed

COCCOCCOCCO + ClC(Cl)=C(Cl)Cl
298.15 K, 101.33 kPa
Conditions | viscosity [mPa·s]
x1 = 0.0078 | 0.862
x1 = 0.016 | 0.883
x1 = 0.0295 | 0.915
x1 = 0.047 | 0.956
x1 = 0.0598 | 0.989
x1 = 0.0696 | 1.016
x1 = 0.0802 | 1.046
x1 = 0.0924 | 1.081
x1 = 0.1201 | 1.162
x1 = 0.1568 | 1.28
x1 = 0.2009 | 1.432
x1 = 0.2413 | 1.592
x1 = 0.2894 | 1.795
x1 = 0.3457 | 2.047
x1 = 0.3797 | 2.209
x1 = 0.4041 | 2.334
x1 = 0.462 | 2.64
x1 = 0.4933 | 2.812
x1 = 0.5379 | 3.072
x1 = 0.5783 | 3.326
x1 = 0.6154 | 3.56
x1 = 0.6587 | 3.856
x1 = 0.7026 | 4.163
x1 = 0.7393 | 4.431
x1 = 0.787 | 4.797
x1 = 0.8264 | 5.117
x1 = 0.886 | 5.597
x1 = 0.9108 | 5.82
x1 = 0.9403 | 6.053
x1 = 0.9649 | 6.276
x2 = 0.0193 | 6.411

Nc1ccccc1 + CCCCCCCCO
viscosity [mPa·s], 100 kPa
Conditions | x1 = 0.0862 | x1 = 0.1575 | x1 = 0.2382 | x1 = 0.3514 | x1 = 0.4471 | x1 = 0.5637 | x1 = 0.6558 | x1 = 0.7476 | x1 = 0.8555 | x1 = 0.9421
293.15 K | 8.01 | 7.27 | 6.6 | 5.83 | 5.28 | 4.66 | 4.4 | 4.19 | 4.03 | 4.14
303.15 K | 5.66 | 5.15 | 4.7 | 4.15 | 3.77 | 3.36 | 3.15 | 3.03 | 2.93 | 3
313.15 K | 4.11 | 3.75 | 3.47 | 3.1 | 2.85 | 2.57 | 2.43 | 2.34 | 2.3 | 2.36
323.15 K | 3.09 | 2.85 | 2.63 | 2.37 | 2.18 | 1.98 | 1.89 | 1.83 | 1.81 | 1.86

CCCBr + Cc1ccc(C)cc1
308.15 K, 101 kPa
Conditions | viscosity [mPa·s]
x2 = 0.1032 | 0.4446
x2 = 0.2012 | 0.4528
x2 = 0.3051 | 0.4596
x2 = 0.4051 | 0.469
x2 = 0.503 | 0.477
x2 = 0.6038 | 0.4865
x2 = 0.7055 | 0.4971
x2 = 0.8019 | 0.5027
x2 = 0.8965 | 0.5124

Oc1ccc2ccccc2c1 + CCCCO
viscosity [mPa·s], 101 kPa
Conditions | x1 = 0.04 | x1 = 0.08 | x1 = 0.12 | x1 = 0.16 | x1 = 0.2
293.15 K | 3.344 | 3.751 | 4.242 | 4.879 | 5.596
303.15 K | 2.529 | 2.808 | 3.17 | 3.582 | 4.024
313.15 K | 1.974 | 2.175 | 2.421 | 2.751 | 3.144
323.15 K | 1.592 | 1.712 | 1.882 | 2.11 | 2.374

CC(C)(C)O + CC(=O)N(C)C
303.15 K, 101 kPa
Conditions | viscosity [mPa·s]
x2 = 0.1094 | 2.544
x2 = 0.2069 | 2.032
x2 = 0.3062 | 1.651
x2 = 0.4037 | 1.422
x2 = 0.5026 | 1.255
x2 = 0.6154 | 1.128
x2 = 0.7028 | 1.046
x2 = 0.8064 | 0.973
x2 = 0.8954 | 0.924

COCCOCCOCCO + CCC(C)O
viscosity [mPa·s], 101 kPa
Conditions | x1 = 0.0039 | x1 = 0.0079 | x1 = 0.0151 | x1 = 0.0318 | x1 = 0.0511 | x1 = 0.08 | x1 = 0.1038
298.15 K | 3.101 | 3.074 | 3.046 | 2.988 | 2.947 | 2.893 | 2.942
308.15 K | 2.163 | 2.161 | 2.148 | 2.133 | 2.132 | 2.128 | 2.186
318.15 K | 1.565 | 1.562 | 1.564 | 1.569 | 1.577 | 1.611 | 1.674

CC(C)C=O + CCCC=O
viscosity [mPa·s], 100 kPa
Conditions | 293.5 K | 293.51 K | 317.08 K | 318.11 K
x1 = 0.12 | – | 23.21 | 17.25 | –
x1 = 0.2 | 2.307 | – | – | 1.698

C[NH+](CCO)CCO.O=C[O-] + CCO
viscosity [mPa·s], 101 kPa
Conditions | 293.15 K | 303.15 K | 313.15 K | 323.15 K
x1 = 0.0643 | 32.41 | 17.44 | 8.445 | 5.799
x1 = 0.1074 | 52.86 | 25.09 | 13.49 | 9.254
x1 = 0.2133 | 106.7 | 51.03 | 27.25 | 18.63
x1 = 0.3117 | 159.3 | 78.2 | 41.19 | 28.12
x1 = 0.417 | 218.9 | 107.6 | 57.4 | 39.18
x1 = 0.5197 | 281.6 | 137.2 | 74.93 | 51.06
x1 = 0.6178 | 348.2 | 168.6 | 93.84 | 63.73
x1 = 0.7224 | 434.6 | 211.7 | 118.3 | 79.69
x1 = 0.8275 | 534.4 | 263.6 | 145.7 | 97.16
x1 = 0.9161 | 630.3 | 312.3 | 170 | 112.2
x1 = 0.95 | 665 | 328.9 | 178.8 | 117.6

CCC(O)CO (stereo not drawn) + CN(C)C=O
308.15 K, 101 kPa
Conditions | viscosity [mPa·s]
x1 = 0.0519 | 0.748
x1 = 0.1008 | 0.855
x1 = 0.2013 | 1.113
x1 = 0.2983 | 1.444
x1 = 0.4099 | 2.065
x1 = 0.4883 | 2.645
x1 = 0.5694 | 3.576
x1 = 0.7139 | 7.387
x1 = 0.8896 | 16.22
x1 = 0.9489 | 21.9

Nc1ccccc1 + CCCCCCCCCCO
viscosity [mPa·s], 100 kPa
Conditions | x1 = 0.0718 | x1 = 0.1593 | x1 = 0.2335 | x1 = 0.3471 | x1 = 0.4452 | x1 = 0.5618 | x1 = 0.6428 | x1 = 0.7439 | x1 = 0.8518 | x1 = 0.9439
293.15 K | 12.8 | 11.23 | 10.05 | 8.62 | 7.44 | 6.23 | 5.57 | 4.95 | 4.47 | 4.31
303.15 K | 8.75 | 7.6 | 6.85 | 5.92 | 5.25 | 4.38 | 3.94 | 3.56 | 3.23 | 3.12
313.15 K | 6.16 | 5.4 | 4.9 | 4.28 | 3.84 | 3.3 | 2.97 | 2.7 | 2.5 | 2.44
323.15 K | 4.47 | 4 | 3.65 | 3.21 | 2.89 | 2.51 | 2.28 | 2.1 | 1.95 | 1.91

— the CheMixHub viscosity set
